Like-named read-outs stand apart in the source and are kept apart here. Residues, ends and D or L forms follow the SMILES beside them. *: point of attachment. ClAc = O=C(CCl)*
Experiments:
HIV-1 [1] = settings: H9 cells
Method: Compounds (a), (b), (c), (d) were tested in the molarity range from 0.1 μM to 1000 μM. Infectivity tests were carried out as follows: an HIV-1 suspension containing 10^2 infectious units was absorbed on to 5×10^6 H9 cells in a volume of 1 ml for 2 hours at 4° C. After this time, 9 ml of tissue culture medium with the required inhibitor concentration was added. The medium was exchanged with fresh medium plus inhibitor daily. Two control cultures were also prepared, one without inhibitor to determine the normal virus replication rate, the other containing inhibitor but no virus, to determine whether the substances were cytotoxic for H9 cells. […] The amount of virus antigen produced by the infected cells was measured daily using Elisa for eight days, indicating the amount of HIV-1 antigen in the tissue culture medium. After this, the cells were pelleted, washed in medium without inhibitor, and further incubated in inhibitor-less medium. The antigen production was measured on days 9 and 12 (ie 1 and […] after removal of the inhibitor). Virus production was also measured on days 7, 8, 9, and 12 by determining the amount of reverse transcriptase in the supernatant of the cell medium.

H9 cells = experiment: Cytotoxicity for H9 cells, trypan blue colouration; type: cell-based; settings: culture with inhibitor but no virus, 0.1 μM to 1000 μM
Method: (§1) Infectivity tests were carried out as follows: an HIV-1 suspension containing 10^2 infectious units was absorbed on to 5×10^6 H9 cells in a volume of 1 ml for 2 hours at 4° C. After this time, 9 ml of tissue culture medium with the required inhibitor concentration was added. The medium was exchanged with fresh medium plus inhibitor daily. Two control cultures were also prepared, one without inhibitor to determine the normal virus replication rate, the other containing inhibitor but no virus, to determine whether the substances were cytotoxic for H9 cells. […] The amount of virus antigen produced by the infected cells was measured daily using Elisa for eight days, indicating the amount of HIV-1 antigen in the tissue culture medium. After this, the cells were pelleted, washed in medium without inhibitor, and further incubated in inhibitor-less medium. The antigen production was measured on days 9 and 12 (ie 1 and 3 days after removal of the inhibitor). Virus production was also measured on days 7, 8, 9, and 12 by determining the amount of reverse transcriptase in the supernatant of the cell medium.

HIV-1 [2] = system: HIV-1
Method: as §1

[3] = 0,1 μM, day 9 post infection, no inhibitor (after removal)
[4] = 0,1 μM, day 12 post infection, no inhibitor (after removal)
[5] = 1 μM, day 9 post infection, no inhibitor (after removal)
[6] = 1 μM, day 12 post infection, no inhibitor (after removal)
[7] = 10 μM, day 9 post infection, no inhibitor (after removal)
[8] = 10 μM, day 12 post infection, no inhibitor (after removal)
[9] = 100 μM, day 9 post infection, no inhibitor (after removal)
[10] = 100 μM, day 12 post infection, no inhibitor (after removal)
[11] = 1000 μM, day 9 post infection, no inhibitor (after removal)
[12] = 1000 μM, day 12 post infection, no inhibitor (after removal)

SMILES: CC[C@H](C)[C@H](NC(=O)[C@@H]1CCCN1C(=O)[C@H](Cc1ccccc1)NC(=O)[C@H](C)NC(=O)CNC(=O)CCl)C(=O)N[C@@H](C)C(=O)O [C, Cl--CH2 --CO-Gly-Ala-Phe-Pro-Ile-Ala-OH] (ClAc-GAFPIA-OH)
- HIV-1 antigen production as measured in antigen capture ELISA (HIV-1 [1]; 0,1 μM, day 1 post infection): 0,062 o. D.
- HIV-1 antigen production as measured in antigen capture ELISA (HIV-1 [1]; 0,1 μM, day 2 post infection): 0,069 o. D.
- HIV-1 antigen production as measured in antigen capture ELISA (HIV-1 [1]; 0,1 μM, day 3 post infection): 0,055 o. D.
- HIV-1 antigen production as measured in antigen capture ELISA (HIV-1 [1]; 0,1 μM, day 4 post infection): 0,052 o. D.
- HIV-1 antigen production as measured in antigen capture ELISA (HIV-1 [1]; 0,1 μM, day 5 post infection): 0,054 o. D.
- HIV-1 antigen production as measured in antigen capture ELISA (HIV-1 [1]; 0,1 μM, day 6 post infection): 0,105 o. D.
- HIV-1 antigen production as measured in antigen capture ELISA (HIV-1 [1]; 0,1 μM, day 7 post infection): 0,276 o. D.
- HIV-1 antigen production as measured in antigen capture ELISA (HIV-1 [1]; 0,1 μM, day 8 post infection): 0,336 o. D.
- HIV-1 antigen production as measured in antigen capture ELISA (HIV-1 [1]; [3]): 0,588 o. D.
- HIV-1 antigen production as measured in antigen capture ELISA (HIV-1 [1]; [4]): 1,010 o. D.
- HIV-1 antigen production as measured in antigen capture ELISA (HIV-1 [1]; 1 μM, day 1 post infection): 0,061 o. D.
- HIV-1 antigen production as measured in antigen capture ELISA (HIV-1 [1]; 1 μM, day 2 post infection): 0,054 o. D.
- HIV-1 antigen production as measured in antigen capture ELISA (HIV-1 [1]; 1 μM, day 3 post infection): 0,060 o. D.
- HIV-1 antigen production as measured in antigen capture ELISA (HIV-1 [1]; 1 μM, day 4 post infection): 0,050 o. D.
- HIV-1 antigen production as measured in antigen capture ELISA (HIV-1 [1]; 1 μM, day 5 post infection): 0,051 o. D.
- HIV-1 antigen production as measured in antigen capture ELISA (HIV-1 [1]; 1 μM, day 6 post infection): 0,133 o. D.
- HIV-1 antigen production as measured in antigen capture ELISA (HIV-1 [1]; 1 μM, day 7 post infection): 0,267 o. D.
- HIV-1 antigen production as measured in antigen capture ELISA (HIV-1 [1]; 1 μM, day 8 post infection): 0,239 o. D.
- HIV-1 antigen production as measured in antigen capture ELISA (HIV-1 [1]; [5]): 0,808 o. D.
- HIV-1 antigen production as measured in antigen capture ELISA (HIV-1 [1]; [6]): 1,042 o. D.
- HIV-1 antigen production as measured in antigen capture ELISA (HIV-1 [1]; 10 μM, day 1 post infection): 0,069 o. D.
- HIV-1 antigen production as measured in antigen capture ELISA (HIV-1 [1]; 10 μM, day 2 post infection): 0,048 o. D.
- HIV-1 antigen production as measured in antigen capture ELISA (HIV-1 [1]; 10 μM, day 3 post infection): 0,066 o. D.
- HIV-1 antigen production as measured in antigen capture ELISA (HIV-1 [1]; 10 μM, day 4 post infection): 0,064 o. D.
- HIV-1 antigen production as measured in antigen capture ELISA (HIV-1 [1]; 10 μM, day 5 post infection): 0,049 o. D.
- HIV-1 antigen production as measured in antigen capture ELISA (HIV-1 [1]; 10 μM, day 6 post infection): 0,099 o. D.
- HIV-1 antigen production as measured in antigen capture ELISA (HIV-1 [1]; 10 μM, day 7 post infection): 0,228 o. D.
- HIV-1 antigen production as measured in antigen capture ELISA (HIV-1 [1]; 10 μM, day 8 post infection): 0,292 o. D.
- HIV-1 antigen production as measured in antigen capture ELISA (HIV-1 [1]; [7]): 0,643 o. D.
- HIV-1 antigen production as measured in antigen capture ELISA (HIV-1 [1]; [8]): 1,040 o. D.
- HIV-1 antigen production as measured in antigen capture ELISA (HIV-1 [1]; 100 μM, day 1 post infection): 0,064 o. D.
- HIV-1 antigen production as measured in antigen capture ELISA (HIV-1 [1]; 100 μM, day 2 post infection): 0,056 o. D.
- HIV-1 antigen production as measured in antigen capture ELISA (HIV-1 [1]; 100 μM, day 3 post infection): 0,062 o. D.
- HIV-1 antigen production as measured in antigen capture ELISA (HIV-1 [1]; 100 μM, day 4 post infection): 0,053 o. D.
- HIV-1 antigen production as measured in antigen capture ELISA (HIV-1 [1]; 100 μM, day 5 post infection): 0,061 o. D.
- HIV-1 antigen production as measured in antigen capture ELISA (HIV-1 [1]; 100 μM, day 6 post infection): 0,100 o. D.
- HIV-1 antigen production as measured in antigen capture ELISA (HIV-1 [1]; 100 μM, day 7 post infection): 0,265 o. D.
- HIV-1 antigen production as measured in antigen capture ELISA (HIV-1 [1]; 100 μM, day 8 post infection): 0,296 o. D.
- HIV-1 antigen production as measured in antigen capture ELISA (HIV-1 [1]; [9]): 0,787 o. D.
- HIV-1 antigen production as measured in antigen capture ELISA (HIV-1 [1]; [10]): 0,940 o. D.
- HIV-1 antigen production as measured in antigen capture ELISA (HIV-1 [1]; 1000 μM, day 1 post infection): 0,071 o. D.
- HIV-1 antigen production as measured in antigen capture ELISA (HIV-1 [1]; 1000 μM, day 2 post infection): 0,053 o. D.
- HIV-1 antigen production as measured in antigen capture ELISA (HIV-1 [1]; 1000 μM, day 3 post infection): 0,061 o. D.
- HIV-1 antigen production as measured in antigen capture ELISA (HIV-1 [1]; 1000 μM, day 4 post infection): 0,057 o. D.
- HIV-1 antigen production as measured in antigen capture ELISA (HIV-1 [1]; 1000 μM, day 5 post infection): 0,123 o. D.
- HIV-1 antigen production as measured in antigen capture ELISA (HIV-1 [1]; 1000 μM, day 6 post infection): 0,096 o. D.
- HIV-1 antigen production as measured in antigen capture ELISA (HIV-1 [1]; 1000 μM, day 7 post infection): 0,415 o. D.
- HIV-1 antigen production as measured in antigen capture ELISA (HIV-1 [1]; 1000 μM, day 8 post infection): 0,778 o. D.
- HIV-1 antigen production as measured in antigen capture ELISA (HIV-1 [1]; [11]): 1,019 o. D.
- HIV-1 antigen production as measured in antigen capture ELISA (HIV-1 [1]; [12]): 1,000 o. D.
- cytotoxic effect for H9 cells, colouration with trypan blue (H9 cells): no cytotoxic effect
- Reverse Transkriptase Determination (HIV-1 [2]; 0,1 μM, day 7 post infection): 5561 epm/ml
- Reverse Transkriptase Determination (HIV-1 [2]; 0,1 μM, day 8 post infection): 2314 epm/ml
- Reverse Transkriptase Determination (HIV-1 [2]; [3]): 7477 epm/ml
- Reverse Transkriptase Determination (HIV-1 [2]; [4]): 113340 epm/ml
- Reverse Transkriptase Determination (HIV-1 [2]; 1 μM, day 7 post infection): 4575 epm/ml
- Reverse Transkriptase Determination (HIV-1 [2]; 1 μM, day 8 post infection): 3198 epm/ml
- Reverse Transkriptase Determination (HIV-1 [2]; [5]): 4186 epm/ml
- Reverse Transkriptase Determination (HIV-1 [2]; [6]): 164240 epm/ml
- Reverse Transkriptase Determination (HIV-1 [2]; 10 μM, day 7 post infection): 5358 epm/ml
- Reverse Transkriptase Determination (HIV-1 [2]; 10 μM, day 8 post infection): 4398 epm/ml
- Reverse Transkriptase Determination (HIV-1 [2]; [7]): 8823 epm/ml
- Reverse Transkriptase Determination (HIV-1 [2]; [8]): 158800 epm/ml
- Reverse Transkriptase Determination (HIV-1 [2]; 100 μM, day 7 post infection): 3838 epm/ml
- Reverse Transkriptase Determination (HIV-1 [2]; 100 μM, day 8 post infection): 6370 epm/ml
- Reverse Transkriptase Determination (HIV-1 [2]; [9]): 8860 epm/ml
- Reverse Transkriptase Determination (HIV-1 [2]; [10]): 96780 epm/ml
- Reverse Transkriptase Determination (HIV-1 [2]; 1000 μM, day 7 post infection): 7646 epm/ml
- Reverse Transkriptase Determination (HIV-1 [2]; 1000 μM, day 8 post infection): 4308 epm/ml
- Reverse Transkriptase Determination (HIV-1 [2]; [11]): 5343 epm/ml
- Reverse Transkriptase Determination (HIV-1 [2]; [12]): 107640 epm/ml
